Data set [1] deals with Apc [+/−] 1638NCOL cells. Put plainly: Cytostatic growth arrest (cell population doubling). It is filed as cell-based, mouse. Conditions: for No. of population doublings: mean ± SD, n = 3. The method, then: (§1) Differential susceptibility of C57COL (wild type Ape [+/+]), the control cell line, and 1638NCOL (Apc [+/−]) to growth inhibition by mechanistically distinct prototype chemopreventive test compounds was evaluated in a conventional cell survival assay, while the preventive efficacy of the test compounds was evaluated using optimized quantitative flow cytometry-based cell cycle analysis. Optimization of flow cytometry based cell cycle analysis is published (7, 8, 10, 11) and is needed in view of batch-to-batch variations in commercially available fluorescein isothiocyanate-conjugated antibodies.
(§2) Selective susceptibility of Ape [+/−] 1638NCOL cells to a prototype chemopreventive agent sulindac (SUL) was examined by comparing its effect on Ape [+/+] C57COL and Ape [+/−] 1638NCOL cells. The cytostatic growth arrest response, evidenced by a decrease in cell population doubling, was about 2-3 fold higher in Ape [+/−] cells as compared to that of Ape [+/+] cells (Table 3).
The dose response and efficacy studies involved treatment of cell cultures with five log μM concentrations of each compound (0.01, 0.1, 1.0, 10.0 and 100.0 μM). […] The cytostatic effect of treatment with high doses (100 μM) was associated with down regulated cell population doubling, altered aneuploid G0/G1: S+G2/M ratio, and decreased number of anchorage independent colonies (Table 4).
(§3) The cell lines were characterized for expression of epithelium specific proteins (cytokeratins), Apc gene product (full length, as opposed to truncated forms which are differentially reactive to carboxyl and amino terminal Apc antibodies), and cytodifferentiation (MUC1, acid mucopolysaccharide, alkaline phosphatase) using standard assays for immunocytochemical analysis. The growth kinetics were determined based on the time-dependent increase in the number of viable cells relative to the initial seeding density. The cell cycle progression and anchorage-independent growth were determined using fluorescence assisted flow cytometry and colony forming assays, respectively, as previously described (4, 7-11). The expression profile of specific gene products (proteins) involved in the regulation of cell cycle progression, apoptosis, and differentiation was also quantified using recently optimized cellular epifluorescence assays (10, 11).

In data set [2] the test system is Apc [+/−] 1638NCOL cells. Put plainly: Flow cytometry-based aneuploid cell cycle progression analysis. Further details: species or system mouse. The settings on record: for G0/G1:S + G2/M ratio (aneuploid cell cycle progression): mean ± SD, n = 3. Here is the method:
Aneuploidy: Fluorescence assisted cell sorting and flow cytometry of cells stained with DNA binding fluorescent dyes. Diploid and aneuploid cells accumulate as distinct peaks on the DNA histograms obtained from flow cytometric analysis.
as §1, §3

Data set [3] deals with Apc [+/−] 1638NCOL cells. The data set is described as follows: Dose response in conventional cell survival assay (growth arrest, toxicity). Format: cell-based, mouse. Further details: key to Toxicity: +: Toxicity, surviving cell population lower than initial seeding density. The settings on record: for No effect: 0.01 μM. The method, then:
as §1
The dose response and efficacy studies involved treatment of cell cultures with five log μM concentrations of each compound (0.01, 0.1, 1.0, 10.0 and 100.0 μM).

The test system of data set [4] is Apc [+/−] 1638NCOL cells. The data set is described as follows: Anchorage-independent growth (soft agar colony formation). It is filed as cell-based, mouse. The settings on record: 100 μM.
Excerpt: Anchorage-independent growth: The ‘soft’ agar growth assay monitors the ability of cells to form non adherant colonies. Single cells suspended in 0.33% agar are overlaid on a basement matrix. These cultures are maintained for about 10-14 days and resulting colonies are counted.
as §3

Data set [5] concerns C57COL (Apc [+/+]) cells. The data set is described as follows: Cytostatic growth arrest (cell population doubling), control cell line. It is filed as cell-based, mouse. Here is the method:
as §1, §2, §3

The structures appear in SMILES notation. Marks after values point to notes of the source that are not given here.

For `NCCCNCCSP(=O)(O)O` [AMF, Amifostine], the results for the “% Change in no. of population doublings versus EtOH control” value in data set [1] (1 μM) and in data set [1] (10 μM) were −17.2% and −37.4%, respectively. Moreover, the “No. of population doublings” value in data set [1] (1 μM) was found to be 8.2 ± 0.2; in data set [1] (10 μM), 6.2 ± 0.3. Moreover, the “G0/G1:S + G2/M ratio (aneuploid cell cycle progression)” value is on record as 9.6 ± 0.7 in data set [2] (1 μM) and 10.9 ± 0.6^c in data set [2] (10 μM). Moreover, the Cell cycle phase result in data set [2] (10 μM) is listed as “G1 arrest”. Further, the No effect result in data set [3] was “+ (No effect <20% inhibition of surviving cell population)”. The “Growth arrest (%)” value is 25% in data set [3] (1 μM (Table 8)), 40% in data set [3] (10 μM (Table 8)) and 25-40% in data set [3] (0.1-10 μM). Besides, in data set [3] (100 μM), the Toxicity entry is on record as “+”.
Consider `CC1=C(/C=C/C(C)=C\C=C\C(C)=C\C(=O)O)C(C)(C)CCC1` [Agent 9cisRA, 9cis retinoic acid], for which the entries for the “% Change in no. of population doublings versus EtOH control” value in data set [1] (1 μM) and in data set [1] (100 μM) were −32.3% and −53.5%, respectively. For the same compound, the “No. of population doublings” value in data set [1] (1 μM) is recorded as 6.7 ± 0.2; in data set [1] (100 μM) it was 4.6 ± 0.1^c. Also, the “Cell Population Doubling” value in data set [1] (100 μM) worked out at 4.6 ± 0.1. For the same compound, the Cell cycle phase result in data set [2] (1 μM) and in data set [2] (100 μM) was “G1 arrest” in each case. Moreover, the “G0/G1:S + G2/M ratio (aneuploid cell cycle progression)” value was 13.8 ± 0.5^c in data set [2] (1 μM) and 22.1 ± 0.6^c in data set [2] (100 μM). For the same compound, in data set [2] (100 μM), the “Aneuploid G0/G1:S + G2/M ratio” value is 18.5 ± 0.2. The Anchorage-independent colonies in data set [4] amounted to 4.4 ± 1.2. The No effect entry in data set [3] was “+ (No effect <20% inhibition of surviving cell population)”. Besides, the “Growth arrest (%)” value in data set [3] (1 μM (Table 8)) turned out to be 30%; in data set [3] (100 μM) it was 60%; in data set [3] (100 μM (Table 8)), 60%; in data set [3] (0.1-10 μM), 30%.
In the case of `Cc1c(-c2cnccn2)ssc1=S` [OLT, Oltipraz], the entries for the “% Change in no. of population doublings versus EtOH control” value in data set [1] (1 μM) and in data set [1] (100 μM) were “+8.1%” and −15.1%, respectively. Further, the “No. of population doublings” value in data set [1] (1 μM) was 10.7 ± 0.2; in data set [1] (100 μM) it was 8.4 ± 0.4. The “Cell Population Doubling” value in data set [1] (100 μM) is reported as 8.4 ± 0.4. Further, the Cell cycle phase entry in data set [2] (1 μM) and in data set [2] (100 μM) was “S,G2M arrest” in each case. The “G0/G1:S + G2/M ratio (aneuploid cell cycle progression)” value in data set [2] (1 μM) was 1.0 ± 0.2^d; in data set [2] (100 μM), 1.2 ± 0.1^d. In addition, the “Aneuploid G0/G1:S + G2/M ratio” value in data set [2] (100 μM) is 7.2 ± 0.1. In data set [4], this compound came in with an Anchorage-independent colonies of 15.8 ± 1.8. Moreover, in data set [3], the No effect entry is reported as “+ (No effect <20% inhibition of surviving cell population)”. The “Growth arrest (%)” value in data set [3] (1 μM (Table 8)) was 2%; in data set [3] (100 μM), 25%; in data set [3] (100 μM (Table 8)) it was 25%; in data set [3] (0.1-10 μM), 2%.
As to `CC1=C(CC(=O)O)c2cc(F)ccc2/C1=C\c1ccc([S+](C)[O-])cc1` (stereo not shown) [SUL, Sulindac], the inhibition at 1 µM was 10.2% in data set [5] (Mus musculus, 120 h, SUL 1 μM, day 5) and 34.2% in data set [1] (Mus musculus, 120 h, 1638NCOL (Apc [+/−]), SUL 1 μM, day 5). Further, the inhibition at 10 µM in data set [5] (Mus musculus, 120 h, SUL 10 μM, day 5) was 15.4%; in data set [1] (Mus musculus, 120 h, 1638NCOL (Apc [+/−]), SUL 10 μM, day 5) it was 39.7%. Besides, the inhibition at 100 µM in data set [5] (Mus musculus, 120 h, SUL 100 μM, day 5) turned out to be 71.8%; in data set [1] (Mus musculus, 120 h, 1638NCOL (Apc [+/−]), SUL 100 μM, day 5), 68.5%. Besides, the “Cell Population Doubling at Day 5 Post-Seeding” value is given as 3.5 ± 0.4 in data set [5] (SUL 1 μM); 3.3 ± 0.7 in data set [5] (SUL 10 μM); 1.1 ± 0.5 in data set [5] (SUL 100 μM); 4.8 ± 0.6 in data set [1] (1638NCOL (Apc [+/−]), SUL 1 μM); 4.4 ± 0.4 in data set [1] (1638NCOL (Apc [+/−]), SUL 10 μM); 2.3 ± 0.3 in data set [1] (1638NCOL (Apc [+/−]), SUL 100 μM). Moreover, the “% Change in no. of population doublings versus EtOH control” value in data set [1] (1 μM) was −23.2%; in data set [1] (100 μM) it was −61.6%. In addition, the “No. of population doublings” value in data set [1] (1 μM) was 7.6 ± 0.3; in data set [1] (100 μM), 3.8 ± 0.2^c. For the same compound, the “Cell Population Doubling” value in data set [1] (100 μM) is recorded as 3.8 ± 0.2. The “Cytostatic growth arrest response (decrease in cell population doubling) in Apc [+/−] cells as compared to Apc [+/+] cells” value in data set [1] (1638NCOL versus C57COL) was 2-3 fold. The “G0/G1:S + G2/M ratio (aneuploid cell cycle progression)” value in data set [2] (1 μM) is recorded as 6.6 ± 0.4^d; in data set [2] (100 μM) it was 13.9 ± 0.8^c. The “Aneuploid G0/G1:S + G2/M ratio” value in data set [2] (100 μM) worked out at 13.9 ± 0.5. Further, in data set [2] (100 μM), the Cell cycle phase result is on record as “G1arrest”. In data set [4], the Anchorage-independent colonies came out at 0.5 ± 0.3. Moreover, the No effect result in data set [3] is listed as “+ (No effect <20% inhibition of surviving cell population)”. The “Growth arrest (%)” value in data set [3] (1 μM (Table 8)) turned out to be 30%; in data set [3] (100 μM), 70%; in data set [3] (100 μM (Table 8)) it was 70%; in data set [3] (0.1-10 μM), 30%.
Regarding `CC/C(=C(\c1ccccc1)c1ccc(OCCN(C)C)cc1)c1ccccc1` [TAM, Tamoxifen], the “% Change in no. of population doublings versus EtOH control” value in data set [1] (1 μM) was −23.2%; in data set [1] (10 μM), −28.3%. The “No. of population doublings” value in data set [1] (1 μM) amounted to 7.6 ± 0.4; in data set [1] (10 μM) it was 7.1 ± 0.2. Further, the Cell cycle phase entry in data set [2] (1 μM) and in data set [2] (10 μM) was “S,G2M arrest” each time. Also, the “G0/G1:S + G2/M ratio (aneuploid cell cycle progression)” value in data set [2] (1 μM) is recorded as 2.7 ± 0.9^d; in data set [2] (10 μM), 1.8 ± 0.8^d. Moreover, the No effect result in data set [3] is recorded as “+ (No effect <20% inhibition of surviving cell population)”. Besides, the “Growth arrest (%)” value in data set [3] (1 μM (Table 8)) was 20%; in data set [3] (10 μM (Table 8)) it was 30%; in data set [3] (0.1-10 μM), 20-30%. Also, in data set [3] (100 μM), the Toxicity result is listed as “+”.

Source of the values: patent US20040029196A1, “Epithelial cell lines from gene knockout mice and methods of use thereof” (priority 2001, published 2004).
